By pIC50 is commonly meant −log10 of the IC50, conventionally taken in molar units.

pIC50: −log10 of the molar value.

From ChEMBL document CHEMBL1153683, “Triply-convergent synthesis of two sets of homochiral cyclopent[a]indene carbacyclin analogs” (Bioorg Med Chem Lett, 1991) come the findings set out here.

For this experiment, the species on record is Homo sapiens. As to the kind of experiment: Compound was evaluated for the inhibition of collagen-induced platelet aggregation. The format is functional.
`O=C(O)Cc1ccc2c(c1)[C@H]1C[C@@H](O)[C@H](/C=C\[C@@H](O)C3CCCCC3)[C@H]1C2` had a pIC50 of under 4.00.
As for `O=C(O)CCc1ccc2c(c1)[C@H]1C[C@@H](O)[C@H](/C=C\[C@@H](O)C3CCCCC3)[C@H]1C2`, the negative-log IC50 (pIC50) was under 4.00.
Compound `O=C(O)Cc1ccc2c(c1)[C@H]1C[C@@H](O)[C@H](CC[C@@H](O)C3CCCCC3)[C@H]1C2` had a pIC50 of 6.48.
In the case of `O=C(O)Cc1ccc2c(c1)[C@H]1C[C@@H](O)[C@H](C#C[C@@H](O)C3CCCCC3)[C@H]1C2`, the pIC50 is 6.74.
To `O=C(O)CCc1ccc2c(c1)[C@H]1C[C@@H](O)[C@H](CC[C@@H](O)C3CCCCC3)[C@H]1C2` belongs 5.66; to `O=C(O)CCc1ccc2c(c1)[C@H]1C[C@@H](O)[C@H](C#C[C@@H](O)C3CCCCC3)[C@H]1C2`, 6.48.
